In US20170283425A1, “COMPOUNDS FOR THE INHIBITION OF CYCLOPHILINS AND USES THEREOF” (Merck Patent GmbH, priority 2016, published 2017):
pIC50, pKd: −log10 of the molar value.

Legend:
CypD [1] = molecular target: T1, CypD (Homo sapiens, UniProt P30405); assay: CypD binding assay (competition fluorescence polarisation with fluorescein-labelled cyclosporin)
Procedure: The binding capacity of the compounds were measured using a competition Fluorescence-Polarisation based assay with fluorescine labelled cyclosporin. The protocol used was adapted from Hausch et al, Med Chem lett 2010, p 536.

CypD [2] = molecular target: T1, CypD; assay: SPR binding; conditions: SPR surface; read-out: SPR CypD (KDSS)
Description: Binding was confirmed on an SPR surface using a protocol adapted from Mori et al., J. Biomolecular Screening, 2009 p 419.

CypD [3] = molecular target: T1, CypD; assay: CypD enzymatic assay (PPase-chymotrypsin coupled, suc-AAPF-p-NA substrate); type: biochemical; conditions: colorimetric
Procedure: The peptidyl-proline isomerase activity (PPase) was determined by using a PPase-chymotrypsin coupled assay with suc-AAPF-p-NA as substrated and colorimeric detection adapted from Liu et al., AnalBioChem, 2006 p 100.

T1 sequence (P30405 30-207): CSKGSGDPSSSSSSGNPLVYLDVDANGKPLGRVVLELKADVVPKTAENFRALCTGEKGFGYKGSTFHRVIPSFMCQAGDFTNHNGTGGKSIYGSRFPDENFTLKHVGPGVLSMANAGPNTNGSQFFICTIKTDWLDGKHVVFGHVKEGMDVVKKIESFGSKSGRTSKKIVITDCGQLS

Row | pIC50 (CypD [1]) | pKd (CypD [2]) | pIC50 (CypD [3]) | SMILES
1 | 4.00 to 6.00 | 4.00 to 6.00 | 4.00 to 6.00 | O=C(NCC(=O)N1CCCC1)NCc1ccc2c(c1)[C@H]1C[C@@H](N2)[C@H](O)CO1 [Compound 12, 1-((1R,9R,10S)-10-Hydroxy-12-oxa-8-aza-tricyclo[7.3.1.02,7]trideca-2(7),3,5-trien-4-ylmethyl)-3-(2-oxo-2-pyrrolidin-1-yl-ethyl)-urea]
2 | > 6.00 | > 6.00 | – | CSc1ccccc1[C@H]1CCCN1C(=O)CCC(=O)NCc1ccc2c(c1)[C@H]1C[C@@H](N2)[C@H](O)CO1 [Compound 2, N-((1R,9R,10S)-10-Hydroxy-12-oxa-8-aza-tricyclo[7.3.1.02,7]trideca-2,4,6-trien-4-ylmethyl)-4-[(R)-2-(2-methylsulfanyl-phenyl)-pyrrolidin-1-yl]-4-oxo-butyramide]
3 | 4.00 to 6.00 | 4.00 to 6.00 | – | CSc1ccccc1[C@H]1CCCN1C(=O)CNC(=O)NC(C)c1ccc2c(c1)CCCC(=O)N2 (stereo partly drawn) [Compound 21, 1-{2-[(R)-2-(2-Methylsulfanyl-phenyl)-pyrrolidin-1-yl]-2-oxo-ethyl}-3-[1-(2-oxo-2,3,4,5-tetrahydro-1H-benzo[b]azepin-7-yl)-ethyl]-urea]
4 | 4.00 to 6.00 | 4.00 to 6.00 | – | CCN1Cc2cc(CCC(=O)NCC(=O)N3CCC[C@@H]3C(F)(F)F)ccc2NCCC1=O [Compound 30, 3-(5-Ethyl-4-oxo-1,2,3,4,5,6-hexahydro-benzo[b][1,5]diazocin-8-yl)-N-[2-oxo-2-((R)-2-trifluoromethyl-pyrrolidin-1-yl)-ethyl]-propionamide]
5 | 4.00 to 6.00 | 4.00 to 6.00 | – | CCn1nnc(CNC(=O)NCc2ccc3c(c2)[C@H]2C[C@@H](N3)[C@H](O)CO2)n1 [Compound 39, 1-((2-ethyl-2H-tetrazol-5-yl)methyl)-3-(((2R,3S,6R)-3-hydroxy-2,3,4,6-tetrahydro-1H-2,6-methanobenzo[c][1,5]oxazocin-8-yl)methyl)urea]
6 | 4.00 to 6.00 | 4.00 to 6.00 | – | C[C@H](c1ccccc1)N(C)C(=O)CNC(=O)NCc1ccc2c(c1)[C@H]1C[C@@H](N2)[C@H](O)CO1 [Compound 38, 2-(3-(((2R,3S,6R)-3-hydroxy-2,3,4,6-tetrahydro-1H-2,6-methanobenzo[c][1,5]oxazocin-8-yl)methyl)ureido)-N-methyl-N—((R)-1-phenylethyl)acetamide]
7 | 4.00 to 6.00 | 4.00 to 6.00 | – | O=C(NCC(=O)N1CCC[C@@H]1C(F)(F)F)NCc1ccc2c(c1)[C@H]1C[C@@H](N2)[C@H](O)CO1 [Compound 8, 1-(((2R,3S,6R)-3-hydroxy-2,3,4,6-tetrahydro-1H-2,6-methanobenzo[c][1,5]oxazocin-8-yl)methyl)-3-(2-oxo-2-((R)-2-(trifluoromethyl)pyrrolidin-1-yl)ethyl)urea]
8 | 4.00 to 6.00 | > 6.00 | – | O=C(NCC(=O)N1CCCC1c1ccccn1)NCc1ccc2c(c1)[C@H]1C[C@@H](N2)[C@H](O)CO1 (stereo partly drawn) [Compound 9, 1-(((2R,3S,6R)-3-hydroxy-2,3,4,6-tetrahydro-1H-2,6-methanobenzo[c][1,5]oxazocin-8-yl)methyl)-3-(2-oxo-2-(2-(pyridin-2-yl)pyrrolidin-1-yl)ethyl)urea]
9 | 4.00 to 6.00 | 4.00 to 6.00 | – | CSc1ccccc1[C@H]1CCCN1C(=O)CNC(=O)CCc1ccc2c(c1)[C@@H]1C[C@H](N2)[C@H](O)CO1 [Compound 23, 3-((2S,3S,6S)-3-hydroxy-2,3,4,6-tetrahydro-1H-2,6-methanobenzo[c][1,5]oxazocin-8-yl)-N-(2-((R)-2-(2-(methylthio)phenyl)pyrrolidin-1-yl)-2-oxoethyl)propanamide]
